Experimental data published in patent publication US20230287416A1, “COMBINATORY TREATMENT OF SMA WITH SARNA AND MRNA MODULATORS” (RACTIGEN THERAPEUTICS, priority 2020, published 2023).

Tested on: SMN2 mRNA
Assay: RT-qPCR of SMN2FL and SMN2 Δ7 mRNA in GM03813 cells
Type: cell-based, human
Conditions: GM03813, 72 h, alone or in combination at 10 nM, RT-qPCR (Example 10, FIG. 12A)
Source text: “GM03813 cells” refers to fibroblast cells provided by Coriell Institute for Medical Research. This cell line is described as SPINAL MUSCULAR ATROPHY, TYPE II; SMA2 SURVIVAL OF MOTOR NEURON 1, TELOMERIC; SMN1. The relevant gene is SMN1; the chromosomal location is 5q12.2-q13.3, the allelic variant is described as 1 exons 7 and 8 deleted, SPINAL MUSCULAR ATROPHY, TYPE I; and the identified mutation: is EX7-8DEL.
Seventy-two hours later, total cellular RNA was isolated from the treated cells and reverse transcribed into cDNA. SMN2 mRNA expression was assessed with RT-qPCR using primer pairs specific for SMN2FL or SMN2 Δ7. SMN2 mRNA expression was also assessed by semi-quantitative RT-PCR using a primer pair that amplifies both SMN2FL and SMN2 Δ7 followed by DdeI digestion (PCR/digestion). […] After digestion, both bands were reduced by 115 bp, resulting in two products: 392 bp (SMN2FL) and 338 bp (SMN2 Δ7) as shown on the gel of FIG. 3D. FIG. 3A-3D show dose-dependent changes in SMN2FL and SMNΔ7 mRNA as assessed by RT-qPCR and PCR/digestion respectively. FIG. 3E-3G are graphic plots of data from quantitating the intensity of bands in FIG. 3D.
SMA patient derived fibroblasts were obtained from Coriell Institute (Camden, N.J., USA), including GM00232 (SMA type I with 2 copies of SMN2 gene) and GM03813 (SMA type II with 3 copies of SMN2 gene). These cells were cultured at 5% C02 and 37° C. in modified MEM medium (Gibco, Thermo Fisher Scientific, Carlsbad, Calif.) supplemented with 15% bovine calf serum (Sigma-Aldrich), 1% NEAA (Gibco) and 1% penicillin/streptomycin (Gibco). To transfect oligonucleotides including saRNAs, siRNA and ASO, cells were seeded into 6-well plates at a density of 1×10^5 cells/well and were transfected with oligonucleotides at different concentrations using RNAiMax (Invitrogen, Carlsbad, Calif.) according to the reverse transfection protocol provided by the manufacturer for 72 hours (unless otherwise specified). For Risdiplam treatment of cells, Risdiplam (HY-109101, MedChem Express Company, Monmouth Junction, N.J., USA) dissolved in DMSO was added directly to cells at desired concentration for 72 hours unless specified otherwise.
For RNA isolation from cultured cells, total cellular RNA was isolated from treated cells using an RNeasy Plus Mini kit (Qiagen, Hilden, Germany) according to its manual. To isolated RNA from animal tissues, tissues were harvested and stored at RNA later (AM7021, Thermo Fisher). Total RNA was then isolated using MagPure Total RNA Micro LQ kit (Magen, R6621, China) by auto-pure96 machine (ALLSHENG, China). The resultant RNA (1 μg) was reverse transcribed into cDNA by using a PrimeScript RT kit containing gDNA Eraser (Takara, Shlga, Japan). The resultant cDNA was amplified in an ABI 7500 Fast Real-time PCR System (Applied Biosystems; Foster City, Calif.) using SYBR Premix Ex Taq 11 (Takara, Shlga, Japan) reagents and primers which specifically amplified full-length (SMN2FL) or A7 SMN2 mRNA (SMN2 Δ7) (FIG. 1). The reaction conditions were: 95° C. for 3 seconds (1 cycle) and 60° C. for 30 seconds (40 cycles). Amplification of TBP gene served as an internal control.

Substance | SMN2FL mRNA fold change [fold] | SMN2 Δ7 mRNA fold change [fold]
DS06-0031: saRNA targeting SMN2 promoter at -1266; SEQ ID NO: 478/479 (chain 1 UUGUACACUUGGUCAACAUTT; chain 2 AUGUUGACCAAGUGUACAATT; chemistry not given here) | 0.9 | 1.9
DS06-0067: saRNA targeting SMN2 promoter at -293; SEQ ID NO: 480/481 (chain 1 CACUGGAGUUCGAGACGAGTT; chain 2 CUCGUCUCGAACUCCAGUGTT; chemistry not given here) | 1.3 | 2.4
